Measured values reported in patent publication US20210395256A1, “TYROSINE KINASE INHIBITORS, COMPOSITIONS AND METHODS THERE OF” (Betta Pharmaceuticals Co., Ltd., priority 2018, published 2021).
Like-named read-outs stand apart in the source and are kept apart here.

What was measured:
TrkA kinase = TrkA kinase (Homo sapiens, UniProt P04629); assay: TrkA kinase assay (mobility shift assay); assay type: biochemical; details: read-out: Trk A Kinase IC50
How it was run: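 Ten-point compound series was preincubated 10 min at room temperature with TrkA, then FAM-peptide plus ATP added in HEPES pH 7.5/Brij-35 buffer and reacted at 28 °C before EDTA quench.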

[1] = Plasma protein binding (equilibrium dialysis), human; assay type: in vitro ADME; details: pH 7.4, human plasma, 1 μM, 6 hours dialysis; for fraction unbound at 6 h, 1 μM: read-out: Mean % Bound Human (converted)
Method: (§1) Example 204 Plasma Protein Binding Measurements
(§2) The plasma protein binding was measured as the following procedure.
(§3) 1) Preparation of 100 mM sodium phosphate and 150 mM NaCl buffer (PBS)
(§4) A basic solution was prepared by dissolving 14.2 g/L Na2HPO4 and 8.77 g/L NaCl in deionized water and the solution could be stored at 4° C. for up to 7 days. An acidic solution was prepared by dissolving 12.0 g/L NaH2PO4 and 8.77 g/L NaCl in deionized water and the solution could be stored at 4° C. for up to 7 days. The basic solution was titrated with the acidic solution to pH 7.4 and store at 4° C. for up to 7 days. pH was checked on the day of experiment and was adjusted if outside specification of 7.4±0.1.
(§5) Frozen plasma was thawed immediately at room temperature.
(§6) The plasma was centrifuged at 3,220 g for 10 minutes to remove clots and supernatant was collected into a fresh tube. The pH of the plasma was checked and recorded.
(§7) Note: a). Only use plasma that has been thawed no more than twice since arrival. b). Only use plasma within the range of pH 7 to pH 8.
(§8) 3) Preparation of working solutions
(§9) The working solutions of test compounds and control compound ketoconazole were prepared in DMSO at the concentration of 200 μM. And then 3 μL of working solution was removed to mix with 597 μL of human, rat or mouse plasma to achieve a final concentration of 1 μM (0.5% DMSO). Plasma samples were vortexed thoroughly.
(§10) 4) Preparation of dialysis membranes
(§11) The dialysis membranes were soaked in ultrapure water for 60 minutes to separate strips, then in 20% ethanol for 20 minutes, finally in dialysis buffer for 20 minutes.
(§12) 5) Procedure for equilibrium dialysis
(§13) The dialysis apparatus was assembled according to the manufacturer's instruction. Each cell was filled with 120 μL of plasma sample and dialyzed against equal volume of dialysis buffer (PBS). The assay was performed in duplicate. The dialysis plate was sealed and incubated in an incubator at 37° C. with 5% CO2 at 100 rpm for 6 hours. At the end of incubation, seal was removed and 50 μL of samples from both buffer and plasma chambers were transferred to wells of a 96-well plate.
(§14) 6) Procedure for sample analysis
(§15) 50 μL of blank plasma was added to each buffer samples and an equal volume of PBS was supplemented to the collected plasma sample. 300 μL of room temperature quench solution (acetonitrile containing internal standards (1S, 100 nM Alprazolam, 500 nM Labetalol and 2 μM Ketoprofen)) was added to precipitate protein. Samples in plate were vortexed for 5 minutes and centrifuged at 3,220 g for 30 minutes at 4° C. And then 100 μL of the supernatant was transferred to a new 96-well plate with 100 μL or 200 μL water (depends on the LC-MS signal response and peak shape) for LC-MS/MS analysis.
(§16) Calculate the percentages of test compound and control compound bound as follows:
(§17) % Free=(Peak Area Ratiobuffer chamber/Peak Area Ratioplasma chamber)*100
(§18) % Recovery=(Peak Area Ratiobuffer chamber+Peak Area Ratioplasma chamber)/Peak Area Ratio total sample*100
(§19) Peak Area Ratiobuffer chamber means the conc for free fraction
(§20) Peak Area Ratioplasma chamber means the conc for both free and bound fraction
(§21) Peak Area Ratiototal sample means the conc for starting sample before incubation

[2] = Plasma protein binding (equilibrium dialysis), rat; assay type: in vitro ADME; details: pH 7.4, 6 hours dialysis; for fraction unbound at 6 h, 1 μM: read-out: Mean % Bound Rat (converted)
Method: as §1, §2, §3, §4, §5, §6, §7, §8, §9, §10, §11, §12, §13, §14, §15, §16, §17, §18, §19, §20, §21

[3] = Plasma protein binding (equilibrium dialysis), mouse; assay type: in vitro ADME; details: pH 7.4, 6 hours dialysis; for fraction unbound at 6 h, 1 μM: read-out: Mean % Bound Mouse (converted)
Method: as §1, §2, §3, §4, §5, §6, §7, §8, §9, §10, §11, §12, §13, §14, §15, §16, §17, §18, §19, §20, §21

Ba/F3-TPM3-NTRK1 = target: T1, Ba/F3-TPM3-NTRK1 (Homo sapiens, UniProt P04629); assay: Ba/F3-TPM3-NTRK1 cells proliferation assay; assay type: cell-based; details: 72 h, CellTiter Glo
T1 construct: expressed in transfected cells; host or cells: Ba/F3; the other entry of the earlier key: TPM3 (P06753, Tropomyosin alpha-3 chain)
T1 sequence (P04629 510-796 limits assumed): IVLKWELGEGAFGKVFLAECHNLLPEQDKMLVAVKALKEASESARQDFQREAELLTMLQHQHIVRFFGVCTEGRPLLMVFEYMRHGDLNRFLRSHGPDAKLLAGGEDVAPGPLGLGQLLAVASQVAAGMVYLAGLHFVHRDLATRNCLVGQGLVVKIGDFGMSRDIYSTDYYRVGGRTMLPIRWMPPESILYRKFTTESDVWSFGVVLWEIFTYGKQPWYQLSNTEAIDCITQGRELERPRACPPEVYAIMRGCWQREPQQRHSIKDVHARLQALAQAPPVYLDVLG
Method: Example 202 Ba/F3-TPM3-NTRK1 and Ba/F3-ETV6-NTRK3 cells proliferation assay
Cell line: Ba/F3 cells with TPM3-NTRK1 or ETV6-NTRK3 fusion mutation gene stably overexpressed named Ba/F3-TPM3-NTRK1 and Ba/F3-ETV6-NTRK3.
RPMI 1640 and 10% FBS and 1% PS and 2 ug/mL puromycin.
b) Collect cell to a 15 mL centrifuged tube, centrifuge at 1000 rpm for 5 min. Discard the supernatant, count, and make the cell density at 1.49×10^4 cells/mL, then place it in a 37° C., 5% CO2 incubator.
a) The test compound (20 mM stock solution) was diluted to 60 μM with 100% DMSO as starting concentration then 3-fold serial diluted with “9+0” concentrations. in a 96-well dilution plate (Thermo, Cat. No. 249944);
b) The above compound solution was diluted 1:20 times with culture medium to prepare a 10 fold working solution;
a) Take cells in log phase growth, centrifuge at 1000 rpm for 5 min, then resuspend the cells with culture medium, then count cells;
b) Cells were seeded to 96-well cell culture plate with density at 2000 cells/well;
a) Compounds prepared at step 2 were added to cell plate with 15 μL per well, the final concentrations were 300, 100, 33.33, 11.11, 3.70, 1.23, 0.41, 0.14, 0.05 and 0 nM, and the final concentration of DMSO was 0.5%. The blank control well was a culture medium (0.5% DMSO);
c) The cells were incubated for an additional 72 h in the incubator.
a) Remove the 96-well cell culture plate and add 50 μl of CTG reagent (CellTiter Glo kit, promega, Cat #G7573).
b) Plate was shaked for 2 min and then let it cool for 30 min at room temperature.
c) The Luminescence signal value was read using a PerkinElmer reader.
Experimental Data Analysis
Data were analyzed using GraphPad Prism 6.0 software to obtain a fitted curve of compound activity.
Fit the Compound IC50 from non-linear regression equation:
Y=Bottom+(Top-Bottom)/(1+10^((Log IC50-X)×HillSlope));
X: The log of the concentration of the compound; Y: Luminescence value.

NTRK1-G595R = NTRK1-G595R (Homo sapiens, UniProt P04629, G595R); assay: NTRK1-G595R cell proliferation assay (Table 13); assay type: cell-based
Chain of NTRK1-G595R (P04629 33-796 G595R): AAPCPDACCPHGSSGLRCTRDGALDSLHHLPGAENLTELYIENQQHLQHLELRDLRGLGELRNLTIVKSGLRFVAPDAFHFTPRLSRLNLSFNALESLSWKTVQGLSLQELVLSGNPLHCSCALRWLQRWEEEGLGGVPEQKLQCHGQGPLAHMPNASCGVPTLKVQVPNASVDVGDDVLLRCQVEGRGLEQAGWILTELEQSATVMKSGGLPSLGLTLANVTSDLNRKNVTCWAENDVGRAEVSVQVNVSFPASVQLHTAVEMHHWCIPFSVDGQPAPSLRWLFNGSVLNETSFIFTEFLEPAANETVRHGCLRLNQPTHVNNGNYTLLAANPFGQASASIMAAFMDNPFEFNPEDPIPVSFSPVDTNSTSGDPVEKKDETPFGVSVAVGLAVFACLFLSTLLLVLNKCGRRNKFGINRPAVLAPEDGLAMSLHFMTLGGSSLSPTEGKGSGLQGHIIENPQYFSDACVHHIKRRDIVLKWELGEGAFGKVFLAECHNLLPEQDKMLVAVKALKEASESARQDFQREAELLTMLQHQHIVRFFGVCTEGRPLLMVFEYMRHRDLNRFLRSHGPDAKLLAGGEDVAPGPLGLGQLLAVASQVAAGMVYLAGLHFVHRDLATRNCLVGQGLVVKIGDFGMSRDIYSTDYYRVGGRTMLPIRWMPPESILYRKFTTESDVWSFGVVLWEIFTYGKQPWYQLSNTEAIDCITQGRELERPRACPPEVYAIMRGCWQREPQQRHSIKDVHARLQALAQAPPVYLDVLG

[4] = Liver microsomes metabolic stability assay, human; assay type: in vitro ADME; details: human liver microsomes 0.5 mg/mL, 37° C.; for half-life at 2 μM: read-out: t1/2 Human
Method: (§22) Example 203 Liver Microsomes Metabolic Stability Assay
(§23) Pooled human liver microsomes (Cat. 452117) were purchased from Corning. Pooled male rat liver microsomes (Cat. R1000) and pooled male mouse liver microsomes (Cat. M1000) were purchased from XENOTECH. Microsomes were stored at −80° C.
(§24) 1) Make a master solution containing phosphate buffer, ultra-pure H2O and MgCl2 solution according to Table 14.
(§25) 2) Two separated experiments were performed as follows.
(§26) a) With NADPH: 10 μL of 20 mg/mL liver microsomes and 40 μL of 10 mM NADPH were added to the incubations. The final concentrations of microsomes and NADPH were 0.5 mg/mL and 1 mM, respectively.
(§27) b) Without NADPH: 10 μL of 20 mg/mL liver microsomes and 40 μL of ultra-pure H2O were added to the incubations. The final concentration of microsomes was 0.5 mg/mL.
(§28) 3) The reaction was started with the addition of 4 μL test compounds solutions or control compound solution (verapamil) at the final concentration of 2 μM and carried out at 37° C.
(§29) 4) Aliquots of 50 μL were taken from the reaction solution at 0, 15, 30, 45 and 60 min. The reaction solutions were stopped by the addition of 4 volumes of cold acetonitrile with 1S (100 nM alprazolam, 200 nM caffeine, 200 nM labetalol and 2 μM ketoprofen). Samples were centrifuged at 3,220 g for 40 minutes. Aliquot of 100 μL of the supernatant was mixed with 100 μL of ultra-pure H2O and then used for LC-MS/MS analysis. All experiments were performed in duplicate.
(§30) The slope value, k, was determined by linear regression of the natural logarithm of the remaining percentage of the parent drug vs. incubation time curve.
(§31) The in vitro half-life (in vitro t1/2) was determined from the slope value:
(§32) Conversion of the in vitro t1/2 (in min) into the in vitro intrinsic clearance (in vitro CLint, in μL/min/mg proteins) was done using the following equation (mean of duplicate determinations): […]
(§33) The control compound (verapamil) was included in the assay. Any value of the compounds that was not within the specified limits will be rejected and the experiment will be repeated.

[5] = Liver microsomes metabolic stability assay, rat; assay type: in vitro ADME; details: male, rat liver microsomes 0.5 mg/mL, 37° C.; for half-life at 2 μM: read-out: t1/2 Rat
Method: as §22, §23, §24, §25, §26, §27, §28, §29, §30, §31, §32, §33

[6] = Liver microsomes metabolic stability assay, mouse; assay type: in vitro ADME; details: male, mouse liver microsomes 0.5 mg/mL, 37° C.; for half-life at 2 μM: read-out: t1/2 Mouse
Method: as §22, §23, §24, §25, §26, §27, §28, §29, §30, §31, §32, §33

Chain of TrkA kinase (P04629 33-796): as the sequence (P04629 33-796 G595R) above, with R563G counted along it

Compound | IC50 (TrkA kinase; numeric values) | recovery at 6 h, 1 μM [1] | fraction unbound at 6 h, 1 μM [1] | recovery at 6 h, 1 μM [2] | fraction unbound at 6 h, 1 μM [2] | recovery at 6 h, 1 μM [3] | fraction unbound at 6 h, 1 μM [3] | IC50 (Ba/F3-TPM3-NTRK1) | IC50 (NTRK1-G595R) | microsomal CLint at 2 μM [4] | half-life at 2 μM [4] | microsomal CLint at 2 μM [5] | half-life at 2 μM [5] | microsomal CLint at 2 μM [6] | half-life at 2 μM [6] | IC50 (TrkA kinase; class symbols)
NC1(c2nnc(-c3cnn4ccc(N5CCC[C@@H]5c5cc(F)ccc5F)nc34)[nH]2)CCC1 [Compound 24, (R)-1-(5-(5-(2-(2,5-difluorophenyl)pyrrolidin-1-yl)pyrazolo[1,5-a]pyrimidin-3-yl)-4H-1,2,4-triazol-3-yl)cyclobutan-1-amine] | 11.8 nM | 85.9% | 0.126 | 82.5% | 0.164 | 86.5% | 0.0817 | – | – | – | – | – | – | – | – | –
C[C@@H](O)c1nnc(-c2cnn3ccc(N4CCC[C@@H]4c4cc(F)ccc4F)nc23)[nH]1 [Compound 34, (R)-1-(5-(5-((R)-2-(2,5-difluorophenyl)pyrrolidin-1-yl)pyrazolo[1,5-a]pyrimidin-3-yl)-4H-1,2,4-triazol-3-yl)ethan-1-ol] | 0.71 nM | 91.7% | 0.0868 | 92.4% | 0.109 | 98.6% | 0.0918 | 3.33 nM | – | – | – | – | – | – | – | –
OCc1cc2nc(-c3cnn4ccc(N5CCC[C@@H]5c5cc(F)ccc5F)nc34)oc2cc1F [Compound 94, (R)-(2-(5-(2-(2,5-difluorophenyl)pyrrolidin-1-yl)pyrazolo[1,5-a]pyrimidin-3-yl)-6-fluorobenzo[d]oxazol-5-yl)methanol] | 0.79 nM | – | – | – | – | – | – | 1.38 nM | 62.9 nM | – | – | – | – | – | – | –
COCCOc1cc2nc(-c3cnn4ccc(N5CCC[C@@H]5c5cc(F)ccc5F)nc34)[nH]c2cc1OCCOC [Compound 101, (R)-3-(5,6-bis(2-methoxyethoxy)-1H-benzo[d]imidazol-2-yl)-5-(2-(2,5-difluorophenyl)pyrrolidin-1-yl)pyrazolo[1,5-a]pyrimidine] | 0.4 nM | – | – | – | – | – | – | 0.28 nM | 165 nM | 49.4 µL/min/mg | 28.1 min | 105 µL/min/mg | 13.2 min | 103 µL/min/mg | 13.5 min | –
N#Cc1cc2[nH]c(-c3cnn4ccc(N5CCC[C@@H]5c5cc(F)ccc5F)nc34)nc2cc1F [Compound 123, (R)-2-(5-(2-(2,5-difluorophenyl)pyrrolidin-1-yl)pyrazolo[1,5-a]pyrimidin-3-yl)-5-fluoro-1H-benzo[d]imidazole-6-carbonitrile] | – | – | – | – | – | – | – | 1.9 nM | 117 nM | 94.1 µL/min/mg | 14.7 min | 60.8 µL/min/mg | 22.8 min | 39 µL/min/mg | 35.5 min | ≤ 10 nM
CN(C)c1cc2[nH]c(-c3cnn4ccc(N5CCC[C@@H]5c5cc(F)ccc5F)nc34)nc2cc1C#N [Compound 144, (R)-2-(5-(2-(2,5-difluorophenyl)pyrrolidin-1-yl)pyrazolo[1,5-a]pyrimidin-3-yl)-6-(dimethylamino)-1H-benzo[d]imidazole-5-carbonitrile] | 1.1 nM | – | – | – | – | – | – | 3.39 nM | 221 nM | – | – | – | – | – | – | –
Fc1ccc(F)c([C@H]2CCCN2c2ccn3ncc(-c4nc5cc(CN6CCOCC6)ccc5[nH]4)c3n2)c1 [Compound 162, (R)-4-((2-(5-(2-(2,5-difluorophenyl)pyrrolidin-1-yl)pyrazolo[1,5-a]pyrimidin-3-yl)-1H-benzo[d]imidazol-5-yl)methyl)morpholine] | 0.6 nM | – | – | – | – | – | – | 1.33 nM | 119 nM | – | – | – | – | – | – | –
